From patent US20110295006A1, “CYCLIC DIPEPTIDES AS FEED ADDITIVES” (EVONIK DEGUSSA GMBH, priority 2010, published 2011)

Columns and labels:
[1] = system: digestive enzymes from mirror carp; assay: In vitro digestion tests with digestive enzymes from mirror carp; type: in vitro ADME, Cyprinus carpio morpha noblis; settings: pH 9
Description: (§1) The diketopiperazines were digested in vitro with digestive enzymes from carnivorous rainbow trout and omnivorous mirror carp. For this, the enzymes were removed from the digestive tracts of fishes and shrimps. The enzyme solutions obtained were then added to the diketopiperazines. For better comparability of the digestibility of dipeptides of various species, identical conditions were selected for the in vitro digestion studies (37° C., pH 9).
a) Isolation of the Digestive Enzymes from Mirror Carp (Cyprinus carpio morpha noblis)
The digestive enzymes were isolated based on the method of EID and MATTY (Aquaculture 1989, 79, 111-119). For this, the intestine was removed from six one-year-old mirror carp (Cyprinus carpio morpha noblis), rinsed with water, cut open lengthwise and in each case the intestinal mucosa was scraped off. This was comminuted, together with crushed ice, in a mixer. The resultant suspension was treated with an ultrasonic rod, to disrupt any cells that were still intact. In order to separate the cell constituents and fat, the suspension was centrifuged for 30 minutes at 4° C., the homogenate was decanted off and sterilized with a trace of thimerosal. 49 ml of enzyme solution of the intestinal mucosa was obtained from 6 mirror carp. The solution was stored at 4° C. in the dark.
(§2) DD/LL-cyclo-Met-Met was taken up in TRIS/HCl buffer solution and the enzyme solution was added to it. As comparison and for assessing the purely chemical cleavage rate, in each case a blank was prepared without enzyme solution (see Table 1). A sample was taken from time to time and its composition was detected and quantified using a calibrated HPLC. The conversion was determined as the quotient of the content of methionine or methionylmethionine (Met-Met) and the content of DD/LL-cyclo-Met-Met (see FIG. 4).
The test from Example 11b) was carried out similarly, with the cyclic dipeptides cyclo-L-His-L-His and cyclo-D-Met-L-Leu (see FIGS. 5 and 6).

[2] = system: digestive enzymes from rainbow trout; assay: In vitro digestion tests with digestive enzymes from rainbow trout; type: in vitro ADME, Oncorhynchus mykiss; settings: pH 9
Description: as §1
a) Isolation of the Digestive Enzymes from Rainbow Trout (Oncorhynchus mykiss)
The digestive enzymes were isolated based on the method of EID and MATTY (Aquaculture 1989, 79, 111-119). For this, the intestine was removed from five one-year-old rainbow trout (Oncorhynchus mykiss) and processed as described in Example 11. 56 ml of enzyme solution of the intestinal mucosa was obtained from 5 rainbow trout. The solution was stored in the dark at 4° C.
The in vitro studies were carried out as in Example 11. The conversion was determined as the quotient of the content of methionine or methionylmethionine (Met-Met) and the content of cyclo-Met-Met (see FIG. 3).
The test from Example 12b) was carried out similarly, with the cyclic dipeptides cyclo-D-Met-L-Phe and cyclo-D-Met-L-Lys (see FIGS. 7 and 8).

chicken = settings: Baker et al. 1982; cited from earlier work
[3] = Blank without enzyme solution (purely chemical cleavage rate); type: physicochemical; settings: no enzyme solution
Description: as §2, with “4). […] [table] The in vitro studies were carried out as in Example 11. The conversion was determined as the quotient of the content of methionine or methionylmethionine (Met-Met) and the content of cyclo-Met-Met (see FIG. 3). […] [table] The in vitro studies were carried out as in Example 11. The conversion was determined as the quotient of the content of methionine or D-Met-L-Thr and the content of cyclo-D-Met-L-Thr (see FIG. 9). […] [table]” for “4).”

[4] = Solubility (water, pH, bile/water mixtures); type: physicochemical
[5] = Leaching behavior from feed in water; type: physicochemical
[6] = Pelletizing and extrusion stability in feed production; type: physicochemical
ruminants = settings: disclosed in WO00/28835; cited from earlier work
Litopenaeus vannamei = settings: feeding tests; Forster and Dominy 2006; cited from earlier work

What does the source list for CSCC[C@@H]1NC(=O)[C@H](CCSC)NC1=O [cyclo-L-Met-L-Met]?
enzymatic cleavage by digestive enzymes of mirror carp [1]: can be cleaved; enzymatic cleavage by digestive enzymes of rainbow trout [2]: can be cleaved

With CSCC[C@H]1NC(=O)[C@@H](CCSC)NC1=O [cyclo-D-Met-D-Met] as the molecule, how does the “enzymatic cleavage by digestive enzymes of mirror carp” value ([1]; in vitro, 37° C.) read?
The value was “can be cleaved”.

And the “enzymatic cleavage by digestive enzymes of rainbow trout” value ([2]; in vitro, 37° C.)?
The value was “can be cleaved”.

With poly-L-methionine as the molecule, how does the biological value (chicken) read?
The biological value was “no biological value”.

With CSCC[C@H]1NC(=O)[C@H]([C@@H](C)O)NC1=O [cyclo-D-Met-L-Thr, 3-(R)-[2-(methylthio)ethyl]-6-(S)-(1-(R)-hydroxyethyl)-2,5-piperazinedione] as the molecule, how does the “conversion in the blank to dipeptide D-Met-L-Thr or free amino acids” value ([3]; TRIS/HCl buffer pH 9.5, 37° C.) read?
The value was “hardly any conversion”.

What does the source list for CSCCC1NC(=O)C(CCSC)NC1=O (racemic) [DD/LL/meso-cyclo-Met-Met, 3,6-bis[2-(methylthio)ethyl]-2,5-piperazinedione]?
enzymatic cleavage by digestive enzymes of rainbow trout ([2]; in vitro, 37° C.): can be cleaved; conversion in the blank to dipeptide DD/LL/meso-Met-Met or DL-methionine ([3]; TRIS/HCl buffer pH 9.5, 37° C.): hardly any conversion; solubility [4]: low solubility; leaching behavior [5]: particularly good leaching behavior; pelletizing and extrusion stability [6]: good pelletizing and extrusion stability

Which “enzymatic cleavage by digestive enzymes of mirror carp” value ([1]; in vitro, 37° C.) does the source give for CSCC[C@@H]1NC(=O)[C@@H](CCSC)NC1=O [cyclo-D-Met-L-Met] here?
The value was “can be cleaved”.

What about the “enzymatic cleavage by digestive enzymes of rainbow trout” value ([2]; in vitro, 37° C.) of the same molecule?
The value was “can be cleaved”.

Which results are given for CSCCC1NC(=O)C(CCSC)NC1=O (centres unmarked) [DD/LL-cyclo-Met-Met, 3,6-bis[2-(methylthio)ethyl]-2,5-piperazinedione]?
enzymatic cleavage by digestive enzymes of mirror carp ([1]; in vitro, 37° C.): can be cleaved; reaction in the blank to dipeptide DD/LL-Met-Met or DL-methionine ([3]; TRIS/HCl buffer pH 9.5, bile, 37° C.): hardly any reaction

With CSCCC(O)C(=O)OC(C)C (centres unmarked) [HMBi] as the molecule, how does the biological value (ruminants) read?
Its biological value is “at least 50%”.

For CSCCC(N)C(=O)O (racemic) [DL-methionine], which “efficacy relative to L-methionine” value (Litopenaeus vannamei) is on record?
Its value is “same efficacy as L-methionine”.
